{"source": "patent US9211310B2", "about": "“Use of a Chinese medicine composition in preparing medicaments for treating secondary prevention of myocardial infarction” (TASLY PHARMACEUTICAL GROUP CO., LTD, priority 2010, dated 2015)", "system": "patients after acute myocardial infarction", "assay": "Angina pectoris score, total and single (frequency/attack times, duration, pain degree, dose of nitroglycerin), same clinical trial", "assay_type": "in vivo, human", "from_the_text": "In order to better understand the present invention, a multi-center, randomized, double-blind, double-dummy and positive drug controlled trial had been conducted. 3508 patients who were in accordance with the diagnostic standards of AMI for 28 days to 2 years and differentiated as Qi deficiency and blood stagnation syndrome by TCM were studied. 0.5 g Chinese medicine composition prepared by the method of EXAMPLE 1 (Coded as QSYQ) was administrated half an hour after meal, 3 times per day. Aspirine was used as a positive drug. The patients were treated for 1 year and observed for 6 months.\nThey included the overall survival time, angina pectoris score, TCM symptom score and life quality score, where angina pectoris score, TCM symptom score and life quality score were evaluated at randomization, in 1st, 3rd, 6th, 9th, 12th month after treatment and 18th month after follow-up.\n(§1) Total angina pectoris score was described on every observation period and the change of observation in comparison with baseline. T-test or Wilcoxon rank sum test were used for inter-group comparison. Grade of total score was evaluated on every observation and Wilcoxon rank sum test was used for inter-group comparison. T-test and Pairing signed rank sum test were used for analyzing the change of total score on every observation between groups in comparison with the baseline.\n(§2) Single angina pectoris score was depicted on every observation time-point and the change of observation in comparison with baseline. Wilcoxon rank sum test was used for inter-group comparison. Pairing signed rank sum test was used for analyzing the change of total score on every observation between groups in comparison with the baseline.\nas §1, with “comparison with the baseline. T-test” for “comparison with baseline. T-test”\nas §2, with “described” for “depicted”", "data": [{"smiles": "CC(=O)Oc1ccccc1C(=O)O", "note": "[Control group, aspirine]", "values": [{"measurement": "change of attack times score, patients (%)", "setting": "1 month after treatment-baseline, change 0, FAS", "value": "(74.81%)"}, {"measurement": "change of attack times score, patients (%)", "setting": "1 month after treatment-baseline, change 0, PP", "value": "(74.53%)"}, {"measurement": "change of attack times score, patients (%)", "setting": "1 month after treatment-baseline, change 1, FAS", "value": "(2.07%)"}, {"measurement": "change of attack times score, patients (%)", "setting": "1 month after treatment-baseline, change 1, PP", "value": "(1.95%)"}, {"measurement": "change of attack times score, patients (%)", "setting": "1 month after treatment-baseline, change 2, FAS", "value": "(2.35%)"}, {"measurement": "change of attack times score, patients (%)", "setting": "1 month after treatment-baseline, change 2, PP", "value": "(2.08%)"}, {"measurement": "change of attack times score, patients (%)", "setting": "1 month after treatment-baseline, change 3, FAS", "value": "(0.11%)"}, {"measurement": "change of attack times score, patients (%)", "setting": "1 month after treatment-baseline, change 3, PP", "value": "(0.13%)"}, {"measurement": "change of attack times score, patients (%)", "setting": "1 month after treatment-baseline, change 4, FAS", "value": "(0.06%)"}, {"measurement": "change of attack times score, patients (%)", "setting": "1 month after treatment-baseline, change 4, PP", "value": "(0.07%)"}, {"measurement": "change of attack times score, patients (%)", "setting": "1 month after treatment-baseline, change −1, FAS", "value": "(7.11%)"}, {"measurement": "change of attack times score, patients (%)", "setting": "1 month after treatment-baseline, change −1, PP", "value": "(7.06%)"}, {"measurement": "change of attack times score, patients (%)", "setting": "1 month after treatment-baseline, change −2, FAS", "value": "(11.99%)"}, {"measurement": "change of attack times score, patients (%)", "setting": "1 month after treatment-baseline, change −2, PP", "value": "(12.63%)"}, {"measurement": "change of attack times score, patients (%)", "setting": "1 month after treatment-baseline, change −3, FAS", "value": "(0.34%)"}, {"measurement": "change of attack times score, patients (%)", "setting": "1 month after treatment-baseline, change −3, PP", "value": "(0.40%)"}, {"measurement": "change of attack times score, patients (%)", "setting": "1 month after treatment-baseline, change −4, FAS", "value": "(1.03%)"}, {"measurement": "change of attack times score, patients (%)", "setting": "1 month after treatment-baseline, change −4, PP", "value": "(1.08%)"}, {"measurement": "change of attack times score, patients (%)", "setting": "1 month after treatment-baseline, change −5, FAS", "value": "(0.00%)"}, {"measurement": "change of attack times score, patients (%)", "setting": "1 month after treatment-baseline, change −5, PP", "value": "(0.00%)"}, {"measurement": "change of attack times score, patients (%)", "setting": "1 month after treatment-baseline, change −6, FAS", "value": "(0.11%)"}, {"measurement": "change of attack times score, patients (%)", "setting": "1 month after treatment-baseline, change −6, PP", "value": "(0.07%)"}, {"measurement": "attack times score, patients (%)", "setting": "3 months after treatment, score 0, FAS", "value": "(40.02%)"}, {"measurement": "attack times score, patients (%)", "setting": "3 months after treatment, score 0, PP", "value": "(40.46%)"}, {"measurement": "attack times score, patients (%)", "setting": "3 months after treatment, score 1, FAS", "value": "(14.11%)"}, {"measurement": "attack times score, patients (%)", "setting": "3 months after treatment, score 1, PP", "value": "(13.92%)"}, {"measurement": "attack times score, patients (%)", "setting": "3 months after treatment, score 2, FAS", "value": "(41.46%)"}, {"measurement": "attack times score, patients (%)", "setting": "3 months after treatment, score 2, PP", "value": "(41.89%)"}, {"measurement": "attack times score, patients (%)", "setting": "3 months after treatment, score 4, FAS", "value": "(4.30%)"}, {"measurement": "attack times score, patients (%)", "setting": "3 months after treatment, score 4, PP", "value": "(3.60%)"}, {"measurement": "attack times score, patients (%)", "setting": "3 months after treatment, score 6, FAS", "value": "(0.11%)"}, {"measurement": "attack times score, patients (%)", "setting": "3 months after treatment, score 6, PP", "value": "(0.14%)"}, {"measurement": "change of attack times score, patients (%)", "setting": "3 months after treatment-baseline, change 0, FAS", "value": "(65.52%)"}, {"measurement": "change of attack times score, patients (%)", "setting": "3 months after treatment-baseline, change 0, PP", "value": "(65.15%)"}, {"measurement": "change of attack times score, patients (%)", "setting": "3 months after treatment-baseline, change 1, FAS", "value": "(3.10%)"}, {"measurement": "change of attack times score, patients (%)", "setting": "3 months after treatment-baseline, change 1, PP", "value": "(2.79%)"}, {"measurement": "change of attack times score, patients (%)", "setting": "3 months after treatment-baseline, change 2, FAS", "value": "(2.24%)"}, {"measurement": "change of attack times score, patients (%)", "setting": "3 months after treatment-baseline, change 2, PP", "value": "(1.83%)"}, {"measurement": "change of attack times score, patients (%)", "setting": "3 months after treatment-baseline, change 3, FAS", "value": "(0.00%)"}, {"measurement": "change of attack times score, patients (%)", "setting": "3 months after treatment-baseline, change 4, FAS", "value": "(0.17%)"}, {"measurement": "change of attack times score, patients (%)", "setting": "3 months after treatment-baseline, change 4, PP", "value": "(0.14%)"}, {"measurement": "change of attack times score, patients (%)", "setting": "3 months after treatment-baseline, change −1, FAS", "value": "(10.96%)"}, {"measurement": "change of attack times score, patients (%)", "setting": "3 months after treatment-baseline, change −1, PP", "value": "(11.21%)"}, {"measurement": "change of attack times score, patients (%)", "setting": "3 months after treatment-baseline, change −2, FAS", "value": "(15.78%)"}, {"measurement": "change of attack times score, patients (%)", "setting": "3 months after treatment-baseline, change −2, PP", "value": "(16.51%)"}, {"measurement": "change of attack times score, patients (%)", "setting": "3 months after treatment-baseline, change −3, FAS", "value": "(0.46%)"}, {"measurement": "change of attack times score, patients (%)", "setting": "3 months after treatment-baseline, change −3, PP", "value": "(0.54%)"}, {"measurement": "change of attack times score, patients (%)", "setting": "3 months after treatment-baseline, change −4, FAS", "value": "(1.43%)"}, {"measurement": "change of attack times score, patients (%)", "setting": "3 months after treatment-baseline, change −4, PP", "value": "(1.56%)"}, {"measurement": "change of attack times score, patients (%)", "setting": "3 months after treatment-baseline, change −5, FAS", "value": "(0.11%)"}, {"measurement": "change of attack times score, patients (%)", "setting": "3 months after treatment-baseline, change −5, PP", "value": "(0.14%)"}, {"measurement": "change of attack times score, patients (%)", "setting": "3 months after treatment-baseline, change −6, FAS", "value": "(0.23%)"}, {"measurement": "change of attack times score, patients (%)", "setting": "3 months after treatment-baseline, change −6, PP", "value": "(0.14%)"}, {"measurement": "attack times score, patients (%)", "setting": "6 months after treatment, score 0, FAS", "value": "(44.55%)"}, {"measurement": "attack times score, patients (%)", "setting": "6 months after treatment, score 0, PP", "value": "(45.98%)"}, {"measurement": "attack times score, patients (%)", "setting": "6 months after treatment, score 1, FAS", "value": "(15.54%)"}, {"measurement": "attack times score, patients (%)", "setting": "6 months after treatment, score 1, PP", "value": "(15.92%)"}, {"measurement": "attack times score, patients (%)", "setting": "6 months after treatment, score 2, FAS", "value": "(36.81%)"}, {"measurement": "attack times score, patients (%)", "setting": "6 months after treatment, score 2, PP", "value": "(36.17%)"}, {"measurement": "attack times score, patients (%)", "setting": "6 months after treatment, score 4, FAS", "value": "(3.04%)"}, {"measurement": "attack times score, patients (%)", "setting": "6 months after treatment, score 4, PP", "value": "(1.85%)"}]}]}
